Assay results: patent US20210024545A1, “SUBSTITUTED DIAZAHETERO-BICYCLIC COMPOUNDS AND THEIR USE” (Bayer Aktiengesellschaft, priority 2016, published 2021)

Key:
human TASK-3 = human TASK-3 (Homo sapiens, UniProt Q9NPC2); experiment: Inhibition of recombinant TASK-3 in stably transfected CHO cells, KCl-induced depolarization, voltage-sensitive dye (B-2); format: cell-based; set-up: expressed in transfected cells; host or cells: stably transfected CHO cells; conditions: depolarization induced by 40 mM potassium chloride, some mean values from multiple determinations
Outline: (§1)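 Stably transfected CHO cells loaded with a voltage-sensitive membrane potential dye. Depolarization was induced with 40 mM KCl, and compound inhibition of it was read by fluorescence. IC50 is the concentration blocking half of the KCl-induced depolarization; some values are means of multiple independent determinations.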

human TASK-1 = human TASK-1 (Homo sapiens, UniProt O14649); experiment: Inhibition of recombinant TASK-1 in stably transfected CHO cells, KCl-induced depolarization, voltage-sensitive dye (B-2); format: cell-based; set-up: expressed in transfected cells; host or cells: stably transfected CHO cells; conditions: depolarization induced by 40 mM potassium chloride, some mean values from multiple determinations
Outline: as §1

human TASK-3, sequence (Q9NPC2 whole entry): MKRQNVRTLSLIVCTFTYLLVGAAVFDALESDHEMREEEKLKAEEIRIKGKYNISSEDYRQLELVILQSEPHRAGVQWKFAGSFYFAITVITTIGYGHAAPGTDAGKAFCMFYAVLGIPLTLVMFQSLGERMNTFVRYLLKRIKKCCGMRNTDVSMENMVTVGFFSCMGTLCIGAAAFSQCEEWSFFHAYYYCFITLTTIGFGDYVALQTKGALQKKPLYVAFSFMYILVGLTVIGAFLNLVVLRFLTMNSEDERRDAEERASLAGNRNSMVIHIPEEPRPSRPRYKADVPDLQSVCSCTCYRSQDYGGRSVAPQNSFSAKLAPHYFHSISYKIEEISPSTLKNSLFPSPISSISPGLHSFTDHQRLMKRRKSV
human TASK-1, sequence (O14649 whole entry): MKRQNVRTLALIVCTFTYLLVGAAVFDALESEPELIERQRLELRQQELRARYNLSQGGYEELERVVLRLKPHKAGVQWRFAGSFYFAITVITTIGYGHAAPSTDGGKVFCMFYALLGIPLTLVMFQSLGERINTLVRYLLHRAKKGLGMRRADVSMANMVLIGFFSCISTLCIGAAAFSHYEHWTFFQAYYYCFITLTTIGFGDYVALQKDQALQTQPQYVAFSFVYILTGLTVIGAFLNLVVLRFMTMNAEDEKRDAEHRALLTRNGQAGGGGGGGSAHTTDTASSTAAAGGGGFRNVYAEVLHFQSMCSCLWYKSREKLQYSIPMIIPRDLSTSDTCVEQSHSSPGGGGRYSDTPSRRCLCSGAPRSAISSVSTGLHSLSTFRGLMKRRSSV

Row | Structure (SMILES) | IC50 (human TASK-3) | IC50 (human TASK-1)
1 | COc1ccc(F)c(C(=O)N2C3CCC2CN(Cc2c(-c4ccc(Br)cc4)nc4ccccn24)C3)n1 [Example 140, (3-{[2-(4-Bromophenyl)imidazo[1,2-a]pyridin-3-yl]methyl}-3,8-diazabicyclo[3.2.1]oct-8-yl)(3-fluoro-6-methoxypyridin-2-yl)methanone] | 21 nM | 160 nM
2 | CC(C)c1ccccc1C(=O)N1C2CCC1CN(Cc1c(-c3ccc(Br)cc3)nc3ccccn13)C2 [Example 141, (3-{[2-(4-Bromophenyl)imidazo[1,2-a]pyridin-3-yl]methyl}-3,8-diazabicyclo[3.2.1]oct-8-yl)(2-isopropylphenyl)methanone] | 59 nM | 250 nM
3 | COc1ccc(C)c(C(=O)N2C3CC2CN(Cc2c(-c4ccc(Cl)cc4)nc4ccccn24)C3)n1 [Example 142, (3-{[2-(4-Chlorophenyl)imidazo[1,2-a]pyridin-3-yl]methyl}-3,6-diazabicyclo[3.1.1]hept-6-yl)(6-methoxy-3-methylpyridin-2-yl)methanone] | 98 nM | 240 nM
4 | COc1ccc(C)c(C(=O)N2CC3CCC(C2)N3Cc2c(-c3ccc(Cl)cc3)nc3ccccn23)n1 [Example 143, (8-{[2-(4-Chlorophenyl)imidazo[1,2-a]pyridin-3-yl]methyl}-3,8-diazabicyclo[3.2.1]oct-3-yl)(6-methoxy-3-methylpyridin-2-yl)methanone] | 14 nM | 130 nM
5 | COc1ccc(C)c(C(=O)N2CC3CCC(C2)N3Cc2c(-c3ccc(C(C)C)cc3)nc3ccccn23)n1 [Example 144, (8-{[2-(4-Isopropylphenyl)imidazo[1,2-a]pyridin-3-yl]methyl}-3,8-diazabicyclo[3.2.1]oct-3-yl)(6-methoxy-3-methylpyridin-2-yl)methanone] | 27 nM | 180 nM
6 | COc1ccc(C)c(C(=O)N2C3CCC2CN(Cc2c(-c4ccc(C(C)C)cc4)nc4ccccn24)C3)n1 [Example 145, (3-{[2-(4-Isopropylphenyl)imidazo[1,2-a]pyridin-3-yl]methyl}-3,8-diazabicyclo[3.2.1]oct-8-yl)(6-methoxy-3-methylpyridin-2-yl)methanone] | 27 nM | 280 nM
7 | CC(C)c1csc(C(=O)N2C3CCC2CN(Cc2c(-c4ccc(Cl)cc4)nc4ccccn24)C3)n1 [Example 146, (3-{[2-(4-Chlorophenyl)imidazo[1,2-a]pyridin-3-yl]methyl}-3,8-diazabicyclo[3.2.1]oct-8-yl)(4-isopropyl-1,3-thiazol-2-yl)methanone] | 340 nM | 920 nM
8 | O=C(c1nccs1)N1C2CCC1CN(Cc1c(-c3ccc(Cl)cc3)nc3ccccn13)C2 [Example 147, (3-{[2-(4-Chlorophenyl)imidazo[1,2-a]pyridin-3-yl]methyl}-3,8-diazabicyclo[3.2.1]oct-8-yl)(1,3-thiazol-2-yl)methanone] | 15 nM | 12 nM
9 | Cc1csc(C(=O)N2C3CCC2CN(Cc2c(-c4ccc(Cl)cc4)nc4ccccn24)C3)n1 [Example 148, (3-{[2-(4-Chlorophenyl)imidazo[1,2-a]pyridin-3-yl]methyl}-3,8-diazabicyclo[3.2.1]oct-8-yl)(4-methyl-1,3-thiazol-2-yl)methanone] | 2.7 nM | 23 nM
10 | Cc1cnc(C(=O)N2C3CCC2CN(Cc2c(-c4ccc(Cl)cc4)nc4ccccn24)C3)s1 [Example 149, (3-{[2-(4-Chlorophenyl)imidazo[1,2-a]pyridin-3-yl]methyl}-3,8-diazabicyclo[3.2.1]oct-8-yl)(5-methyl-1,3-thiazol-2-yl)methanone] | 300 nM | 3000 nM
11 | Cc1nc(C(=O)N2C3CCC2CN(Cc2c(-c4ccc(Cl)cc4)nc4ccccn24)C3)sc1C [Example 150, (3-{[2-(4-Chlorophenyl)imidazo[1,2-a]pyridin-3-yl]methyl}-3,8-diazabicyclo[3.2.1]oct-8-yl)(4,5-dimethyl-1,3-thiazol-2-yl)methanone] | 210 nM | 2700 nM
12 | CC(C)NC(=O)N1C2CCC1CN(Cc1c(-c3ccc(Cl)cc3)nc3ccccn13)C2 [Example 154, 3-{[2-(4-Chlorophenyl)imidazo[1,2-a]pyridin-3-yl]methyl}-N-isopropyl-3,8-diazabicyclo[3.2.1]octane-8-carboxamide] | 29 nM | 130 nM
13 | O=C(Nc1ccccc1F)N1C2CCC1CN(Cc1c(-c3ccc(Cl)cc3)nc3ccccn13)C2 [Example 155, 3-{[2-(4-Chlorophenyl)imidazo[1,2-a]pyridin-3-yl]methyl}-N-(2-fluorophenyl)-3,8-diazabicyclo[3.2.1]octane-8-carboxamide] | 210 nM | 610 nM
14 | O=C(Nc1c(Cl)cccc1Cl)N1C2CCC1CN(Cc1c(-c3ccc(Cl)cc3)nc3ccccn13)C2 [Example 156, 3-{[2-(4-Chlorophenyl)imidazo[1,2-a]pyridin-3-yl]methyl}-N-(2,6-dichlorophenyl)-3,8-diazabicyclo[3.2.1]octane-8-carboxamide] | 15 nM | 1200 nM
15 | Cc1cccc(C)c1NC(=O)N1C2CCC1CN(Cc1c(-c3ccc(Cl)cc3)nc3ccccn13)C2 [Example 157, 3-{[2-(4-Chlorophenyl)imidazo[1,2-a]pyridin-3-yl]methyl}-N-(2,6-dimethylphenyl)-3,8-diazabicyclo[3.2.1]octane-8-carboxamide] | 7.4 nM | 24 nM
16 | CCCCCNC(=O)N1C2CCC1CN(Cc1c(-c3ccc(Cl)cc3)nc3ccccn13)C2 [Example 158, 3-{[2-(4-Chlorophenyl)imidazo[1,2-a]pyridin-3-yl]methyl}-N-pentyl-3,8-diazabicyclo[3.2.1]octane-8-carboxamide] | 110 nM | 760 nM
17 | Cc1ccccc1NC(=O)N1C2CCC1CN(Cc1c(-c3ccc(Cl)cc3)nc3ccccn13)C2 [Example 159, 3-{[2-(4-Chlorophenyl)imidazo[1,2-a]pyridin-3-yl]methyl}-N-(2-methylphenyl)-3,8-diazabicyclo[3.2.1]octane-8-carboxamide] | 220 nM | 2900 nM
18 | O=C(Nc1cc(C(F)(F)F)ccc1Cl)N1C2CCC1CN(Cc1c(-c3ccc(Cl)cc3)nc3ccccn13)C2 [Example 160, 3-{[2-(4-Chlorophenyl)imidazo[1,2-a]pyridin-3-yl]methyl}-N-[2-chloro-5-(trifluoromethyl)phenyl]-3,8-diazabicyclo[3.2.1]octane-8-carboxamide] | 1000 nM | 7600 nM
19 | O=C(Nc1ccc(Cl)cc1)N1C2CCC1CN(Cc1c(-c3ccc(Cl)cc3)nc3ccccn13)C2 [Example 161, N-(4-Chlorophenyl)-3-{[2-(4-chlorophenyl)imidazo[1,2-a]pyridin-3-yl]methyl}-3,8-diazabicyclo[3.2.1]octane-8-carboxamide] | 1000 nM | 7700 nM
20 | CCc1cccc(C)c1NC(=O)N1C2CCC1CN(Cc1c(-c3ccc(Cl)cc3)nc3ccccn13)C2 [Example 162, 3-{[2-(4-Chlorophenyl)imidazo[1,2-a]pyridin-3-yl]methyl}-N-(2-ethyl-6-methylphenyl)-3,8-diazabicyclo[3.2.1]octane-8-carboxamide] | 13 nM | 53 nM
21 | Cc1ccc(C)c(NC(=O)N2C3CCC2CN(Cc2c(-c4ccc(Cl)cc4)nc4ccccn24)C3)c1 [Example 163, 3-{[2-(4-Chlorophenyl)imidazo[1,2-a]pyridin-3-yl]methyl}-N-(2,5-dimethylphenyl)-3,8-diazabicyclo[3.2.1]octane-8-carboxamide] | 160 nM | 1400 nM
22 | O=C(NC1CCCCC1)N1C2CCC1CN(Cc1c(-c3ccc(Cl)cc3)nc3ccccn13)C2 [Example 164, 3-{[2-(4-Chlorophenyl)imidazo[1,2-a]pyridin-3-yl]methyl}-N-cyclohexyl-3,8-diazabicyclo[3.2.1]octane-8-carboxamide] | 1000 nM | 3100 nM
23 | O=C(Nc1c(F)cccc1F)N1C2CCC1CN(Cc1c(-c3ccc(Cl)cc3)nc3ccccn13)C2 [Example 166, 3-{[2-(4-Chlorophenyl)imidazo[1,2-a]pyridin-3-yl]methyl}-N-(2,6-difluorophenyl)-3,8-diazabicyclo[3.2.1]octane-8-carboxamide] | 44 nM | 990 nM
24 | Cc1ccc(NC(=O)N2C3CCC2CN(Cc2c(-c4ccc(Cl)cc4)nc4ccccn24)C3)c(C)c1 [Example 167, 3-{[2-(4-Chlorophenyl)imidazo[1,2-a]pyridin-3-yl]methyl}-N-(2,4-dimethylphenyl)-3,8-diazabicyclo[3.2.1]octane-8-carboxamide] | 350 nM | 3000 nM
25 | CC(C)NC(=O)N1C2COCC1CN(Cc1c(-c3ccc(Cl)cc3)nc3ccccn13)C2 [Example 168, 7-{[2-(4-Chlorophenyl)imidazo[1,2-a]pyridin-3-yl]methyl}-N-isopropyl-3-oxa-7,9-diazabicyclo[3.3.1]nonane-9-carboxamide] | 130 nM | 1400 nM
26 | Cc1cccc(Cl)c1NC(=O)N1C2COCC1CN(Cc1c(-c3ccc(Cl)cc3)nc3ccccn13)C2 [Example 169, N-(2-Chloro-6-methylphenyl)-7-{[2-(4-chlorophenyl)imidazo[1,2-a]pyridin-3-yl]methyl}-3-oxa-7,9-diazabicyclo[3.3.1]nonane-9-carboxamide] | 110 nM | 3600 nM
27 | O=C(NC1CC1)N1C2CCC1CN(Cc1c(-c3ccc(Cl)cc3)nc3ccccn13)C2 [Example 170, 3-{[2-(4-Chlorophenyl)imidazo[1,2-a]pyridin-3-yl]methyl}-N-cyclopropyl-3,8-diazabicyclo[3.2.1]octane-8-carboxamide] | 64 nM | 1200 nM
28 | O=C(Nc1ccccc1Cl)N1C2CCC1CN(Cc1c(-c3ccc(Cl)cc3)nc3ccccn13)C2 [Example 171, N-(2-Chlorophenyl)-3-{[2-(4-chlorophenyl)imidazo[1,2-a]pyridin-3-yl]methyl}-3,8-diazabicyclo[3.2.1]octane-8-carboxamide] | 26 nM | 1800 nM
